Literature values, collected in patent publication US10603401B2, “Dressing system” (Edixomed Limited, priority 2015, dated 2020).

Conditions: healthy 70 kg-adult

| SMILES | Generally accepted safe dosage for topical anaesthesia [mg] |
| --- | --- |
| COC(=O)[C@H]1[C@@H](OC(=O)c2ccccc2)C[C@@H]2CC[C@H]1N2C [cocaine] | 200 |
| CCCCNc1ccc(C(=O)OCCN(C)C)cc1 [tetracaine] | 50 |
| CCN(CC)CC(=O)Nc1c(C)cccc1C [lidocaine] | 750 |
